Test results from the NIST ThermoML archive (doi:10.1016/j.jct.2010.11.003).
“And” between values parts separate entries of the source, which are not always exact repeats. Equal entries are not always repeated.

Assay: mn = molality of the nth substance listed, in mol/kg
Settings: 101 kPa, Liquid; for speed of sound: Sing-around technique in a fixed-path interferometer; for mass density: Vibrating tube method; for viscosity: Capillary tube (Ostwald / Ubbelohde) method

O=C([O-])CC(O)(CC(=O)[O-])C(=O)[O-].[K+].[K+].[K+] [potassium citrate] + O
Settings | mass density [kg/m3] | speed of sound | viscosity
293.15 K, m1 = 0.0472 | 1007.81 | 1492.8 m/s | –
293.15 K, m1 = 0.0566 | 1009.7 | 1494.6 m/s | –
293.15 K, m1 = 0.066 | 1011.58 | 1496.5 m/s | –
293.15 K, m1 = 0.0754 | 1013.45 | 1498.3 m/s | –
293.15 K, m1 = 0.0849 | 1015.34 | 1500.2 m/s | –
293.15 K, m1 = 0.0943 | 1017.2 | 1502.1 m/s | –
293.15 K, m1 = 0.2984 | 1055.65 | 1540.4 m/s | –
293.15 K, m1 = 0.3971 | 1073.05 | 1558.2 m/s | –
293.15 K, m1 = 0.4955 | 1089.85 | 1576 m/s | –
293.15 K, m1 = 0.5936 | 1106.03 | 1593.3 m/s | –
293.15 K, m1 = 0.7877 | 1136.49 | 1626.4 m/s | –
293.15 K, m1 = 0.9823 | 1165.2 | 1658.6 m/s | –
293.15 K, m1 = 1.175 | 1191.92 | 1689.6 m/s | –
293.15 K, m1 = 1.366 | 1216.69 | 1718.7 m/s | –
293.15 K, m1 = 1.555 | 1239.9 | 1746.2 m/s | –
293.15 K, m1 = 1.837 | 1272.28 | 1784.9 m/s | –
298.15 K, m1 = 0.0472 | 1006.59 | 1506.6 m/s | 1.027 mPa·s and 0.911 mPa·s
298.15 K, m1 = 0.0566 | 1008.46 | 1508.5 m/s | 0.918 mPa·s and 1.027 mPa·s
298.15 K, m1 = 0.066 | 1010.33 | 1510.3 m/s | 0.924 mPa·s and 1.029 mPa·s
298.15 K, m1 = 0.0754 | 1012.19 | 1512 m/s | 0.93 mPa·s and 1.033 mPa·s
298.15 K, m1 = 0.0849 | 1014.06 | 1513.9 m/s | 0.935 mPa·s and 1.037 mPa·s
298.15 K, m1 = 0.0943 | 1015.89 | 1515.7 m/s | 0.942 mPa·s and 1.041 mPa·s
298.15 K, m1 = 0.2984 | 1054.02 | 1552.8 m/s | 1.065 mPa·s and 1.132 mPa·s
298.15 K, m1 = 0.3971 | 1071.35 | 1570.1 m/s | 1.13 mPa·s and 1.183 mPa·s
298.15 K, m1 = 0.4955 | 1088.07 | 1587 m/s | 1.2 mPa·s and 1.238 mPa·s
298.15 K, m1 = 0.5936 | 1104.21 | 1603.8 m/s | 1.274 mPa·s and 1.295 mPa·s
298.15 K, m1 = 0.7877 | 1134.65 | 1636.2 m/s | 1.423 mPa·s and 1.441 mPa·s
298.15 K, m1 = 0.9823 | 1163.14 | 1667.5 m/s | 1.575 mPa·s and 1.624 mPa·s
298.15 K, m1 = 1.175 | 1189.77 | – | 1.733 mPa·s and 1.837 mPa·s
298.15 K, m1 = 1.366 | 1214.46 | – | 1.92 mPa·s and 2.072 mPa·s
298.15 K, m1 = 1.555 | 1237.68 | – | 2.121 mPa·s and 2.334 mPa·s
298.15 K, m1 = 1.837 | 1269.96 | – | 2.476 mPa·s and 2.788 mPa·s
303.15 K, m1 = 0.0472 | 1005.15 | 1518.1 m/s | 0.821 mPa·s
303.15 K, m1 = 0.0566 | 1007.02 | 1519.9 m/s | 0.822 mPa·s
303.15 K, m1 = 0.066 | 1008.87 | 1521.7 m/s | 0.825 mPa·s
303.15 K, m1 = 0.0754 | 1010.72 | 1523.5 m/s | 0.832 mPa·s
303.15 K, m1 = 0.0849 | 1012.58 | 1525.3 m/s | 0.837 mPa·s
303.15 K, m1 = 0.0943 | 1014.42 | 1527 m/s | 0.843 mPa·s
303.15 K, m1 = 0.2984 | 1052.39 | 1563.6 m/s | 0.956 mPa·s
303.15 K, m1 = 0.3971 | 1069.63 | 1580.3 m/s | 1.016 mPa·s
303.15 K, m1 = 0.4955 | 1086.25 | 1596.8 m/s | 1.08 mPa·s
303.15 K, m1 = 0.5936 | 1102.31 | 1613.3 m/s | 1.145 mPa·s
303.15 K, m1 = 0.7877 | 1132.65 | 1644.5 m/s | 1.295 mPa·s
303.15 K, m1 = 0.9823 | 1161.02 | 1674.8 m/s | 1.458 mPa·s
303.15 K, m1 = 1.175 | 1187.66 | 1697.5 m/s | 1.647 mPa·s
303.15 K, m1 = 1.366 | 1212.46 | 1725.7 m/s | 1.853 mPa·s
303.15 K, m1 = 1.555 | 1235.64 | 1752.6 m/s | 2.085 mPa·s
303.15 K, m1 = 1.837 | 1267.94 | 1790.3 m/s | 2.484 mPa·s
308.15 K, m1 = 0.0472 | 1003.5 | 1529 m/s | 0.739 mPa·s
308.15 K, m1 = 0.0566 | 1005.36 | 1530.8 m/s | 0.741 mPa·s
308.15 K, m1 = 0.066 | 1007.2 | 1532.5 m/s | 0.744 mPa·s
308.15 K, m1 = 0.0754 | 1009.04 | 1534.2 m/s | 0.749 mPa·s
308.15 K, m1 = 0.0849 | 1010.89 | 1535.9 m/s | 0.754 mPa·s
308.15 K, m1 = 0.0943 | 1012.72 | 1537.6 m/s | 0.76 mPa·s
308.15 K, m1 = 0.2984 | 1050.43 | 1572.8 m/s | 0.861 mPa·s
308.15 K, m1 = 0.3971 | 1067.62 | 1589 m/s | 0.916 mPa·s
308.15 K, m1 = 0.4955 | 1084.2 | 1605.1 m/s | 0.975 mPa·s
308.15 K, m1 = 0.5936 | 1100.17 | 1620.8 m/s | 1.036 mPa·s
308.15 K, m1 = 0.7877 | 1130.41 | 1651.3 m/s | 1.168 mPa·s
308.15 K, m1 = 0.9823 | 1158.81 | 1681 m/s | 1.316 mPa·s
308.15 K, m1 = 1.175 | 1185.33 | 1704 m/s | 1.486 mPa·s
308.15 K, m1 = 1.366 | 1210.05 | 1731.7 m/s | 1.671 mPa·s
308.15 K, m1 = 1.555 | 1233.31 | 1757.9 m/s | 1.875 mPa·s
308.15 K, m1 = 1.837 | 1265.24 | 1794.7 m/s | 2.231 mPa·s
313.15 K, m1 = 0.0472 | 1001.66 | 1538.1 m/s | 0.665 mPa·s
313.15 K, m1 = 0.0566 | 1003.51 | 1539.8 m/s | 0.668 mPa·s
313.15 K, m1 = 0.066 | 1005.35 | 1541.4 m/s | 0.672 mPa·s
313.15 K, m1 = 0.0754 | 1007.18 | 1543 m/s | 0.675 mPa·s
313.15 K, m1 = 0.0849 | 1009.03 | 1544.7 m/s | 0.68 mPa·s
313.15 K, m1 = 0.0943 | 1010.86 | 1546.4 m/s | 0.684 mPa·s
313.15 K, m1 = 0.2984 | 1048.42 | 1580.5 m/s | 0.783 mPa·s
313.15 K, m1 = 0.3971 | 1065.62 | 1596.5 m/s | 0.832 mPa·s
313.15 K, m1 = 0.4955 | 1082.12 | 1612 m/s | 0.887 mPa·s
313.15 K, m1 = 0.5936 | 1098.03 | 1627.4 m/s | 0.94 mPa·s
313.15 K, m1 = 0.7877 | 1128.2 | 1657.5 m/s | 1.063 mPa·s
313.15 K, m1 = 0.9823 | 1156.41 | 1686.1 m/s | 1.196 mPa·s
313.15 K, m1 = 1.175 | 1182.97 | 1709.4 m/s and 1714 m/s | 1.351 mPa·s
313.15 K, m1 = 1.366 | 1207.69 | 1736.3 m/s and 1740.3 m/s | 1.516 mPa·s
313.15 K, m1 = 1.555 | 1230.6 | 1762.1 m/s and 1765.2 m/s | 1.697 mPa·s
313.15 K, m1 = 1.837 | 1262.83 | 1797.6 m/s and 1800.3 m/s | 2.013 mPa·s
